Measurements reported in article PMC5439949, “Structural features of PhoX, one of the phosphate-binding proteins from Pho regulon of Xanthomonas citri” (PLoS ONE, 2017).

Key:
PstS = PstS (Xanthomonas citri, UniProt A0AAI8ESD8); experiment: thermal unfolding by CD at […] nm; assay type: binding; details: Tm without to with 30 μM NaH2PO4; 2 μM protein, 10 mM Tris-HCl pH 8.0, 20-95 °C
PhoX = PhoX (Xanthomonas citri, UniProt A0AAI8ERC0); experiment: thermal unfolding by CD at […] nm; assay type: binding; details: Tm without to with 30 μM NaH2PO4; 2 μM protein, 10 mM Tris-HCl pH 8.0, 20-95 °C
PhoX, sequence (A0AAI8ERC0 entry or part of it): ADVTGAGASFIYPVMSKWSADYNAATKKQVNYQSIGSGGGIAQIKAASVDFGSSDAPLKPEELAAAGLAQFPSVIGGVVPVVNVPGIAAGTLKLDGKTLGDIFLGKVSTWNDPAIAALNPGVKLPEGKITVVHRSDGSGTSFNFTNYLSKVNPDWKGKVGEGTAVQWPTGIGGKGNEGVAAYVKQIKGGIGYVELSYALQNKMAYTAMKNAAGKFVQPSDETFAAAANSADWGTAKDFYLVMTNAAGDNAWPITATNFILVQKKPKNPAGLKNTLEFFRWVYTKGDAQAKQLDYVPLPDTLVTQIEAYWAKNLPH

PstS, sequence (A0AAI8ESD8 entry or part of it): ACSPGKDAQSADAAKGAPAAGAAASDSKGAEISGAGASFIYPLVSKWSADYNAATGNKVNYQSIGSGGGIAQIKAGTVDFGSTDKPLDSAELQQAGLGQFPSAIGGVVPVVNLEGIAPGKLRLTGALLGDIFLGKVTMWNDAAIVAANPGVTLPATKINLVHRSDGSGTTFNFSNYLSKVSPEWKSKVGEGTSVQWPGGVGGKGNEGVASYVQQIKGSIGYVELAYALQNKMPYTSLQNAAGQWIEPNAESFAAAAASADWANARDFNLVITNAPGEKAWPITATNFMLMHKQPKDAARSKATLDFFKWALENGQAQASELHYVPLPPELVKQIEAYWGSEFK

O=P(O)(O)O [phosphate]
Tm (PstS): 71 to 78 °C | Tm (PhoX): 64 to 77 °C
